In ChEMBL document CHEMBL5725614, “Histone demethylase inhibitors” (2018):

Assay: FBXL11 Assay: The ability of test compounds to inhibit the activity of FBXL11 was determined in 384-well plate format under the following reaction conditions: 0.15 nM FBXL11, 30 nM H3K36me2-biotin labeled peptide (Anaspec cat #64442), 0.2 μM alpha-ketoglutaric acid in assay buffer of 50 mM HEPES, pH7.3, 0.005% Brij35, 0.5 mM TCEP, 0.2 mg/ml BSA, 50 μM sodium L-ascorbate, 5 μM ammonium iron(II) sulfate. Reaction product is determined quantitatively by AlphaScreen detection after the addition of detection reagents anti-H3K36me1 antibody, AlphaScreen® Streptavidin-coated Donor beads, and AlphaScreen® Protein A Acceptor beads in 50 mM HEPES, pH7.3, 10 mM NaCl, 0.005% Brij35, 5 mM EDTA, 2 mg/ml BSA to final 10 μg/ml beads.The assay reaction was initiated by the following: 3 μl of the mixture of 90 nM H3K36me2-biotin labeled peptide and 0.6 μM alpha-ketoglutaric acid with 3 μl of 11-point serial diluted inhibitor in 3% DMSO are added to each well of 384 well Proxiplate (Perkin Elmer), followed by the addition of 3 μl of 0.45 nM FBXL11 to initiate the reaction. The reaction mixture is incubated at room temperature for 1 hour, and terminated by the addition of 3 μl of appropriate dilution of anti H3K36me1 antibody in 50 mM HEPES, pH7.3, 10 mM NaCl, 0.005% Brij35, 5 mM EDTA, 2 mg/ml BSA. Plates will then incubated at room temperature for 40 minutes, followed by addition of 3 ul of 50 μg/ml AlphaScreen® Streptavidin-coated Donor beads and AlphaScreen® Protein A Acceptor beads in 50 mM HEPES, pH7.3, 10 mM NaCl, 0.005% Brij35, 5 mM EDTA, 2 mg/ml BSA. Plates will then be read by EnVision Multilabel Reader in AlphaScreen mode after minimum 2 hour incubation at room temperature. The AlphaScreen signal for each well is used to determine inhibition constant (IC50).

IC50 | SMILES
in the range around 550 nM | Clc1cccc(-n2cnc(-c3cc4[nH]nnc4cn3)c2)c1
in the range around 550 nM | CCOc1cc(-c2c(-c3cc(-c4c[nH]nn4)ccn3)ncn2C)ccc1F
in the range around 550 nM | Clc1ccccc1Cn1cnc(-c2cc(-c3c[nH]nn3)ccn2)c1

Assay: PHF8 Assay: The ability of test compounds to inhibit the activity of PHF8 was determined in 384-well plate format under the following reaction conditions: 3 nM PHF8, 200 nM H3K9me1-biotin labeled peptide (Anaspec cat #64358), 0.5 μM alpha-ketoglutaric acid in assay buffer of 50 mM HEPES, pH7.3, 0.005% Brij35, 0.5 mM TCEP, 0.2 mg/ml BSA, 50 μM sodium L-ascorbate, and 5 μM ammonium iron(II) sulfate. Reaction product was determined quantitatively by TR-FRET after the addition of detection reagent Phycolink Streptavidin-allophycocyanin (Prozyme) and Europium-anti-unmodified-histone H3 lysine 9/lysine27 (H3K9/K27) antibody (PerkinElmer) in the presence of 5 mM EDTA in LANCE detection buffer (PerkinElmer) at a final concentration of 25 nM and 0.5 nM, respectively.The assay reaction was initiated by the following: 2 μl of the mixture of 600 nM H3K9me1-biotin labeled peptide and 1.5 μM alpha-ketoglutaric acid with 2 μl of 11-point serial diluted inhibitor in 3% DMSO were added to each well of the plate, followed by the addition of 2 μl of 9 nM PHF8 to initiate the reaction. The reaction mixture was incubated at room temperature for 15 minutes, and terminated by the addition of 6 μl of 5 mM EDTA in LANCE detection buffer containing 50 nM Phycolink Streptavidin-allophycocyanin and 1 nM Europium-anti-unmodified H3K9/K27 antibody. Plates were read by EnVision Multilabel Reader in TR-FRET mode (excitation at 320 nm, emission at 615 nm and 665 nm) after 1 hour incubation at room temperature. A ratio was calculated (665/615) for each well and fitted to determine inhibition constant (IC50).

IC50 | SMILES
in the range around 550 nM | N#Cc1[nH]nnc1-c1ccnc(-c2cn(CCc3cccc4ccccc34)cn2)c1
in the range around 550 nM | FC(F)(F)COc1ccccc1CCn1cnc(-c2cc(-c3c[nH]nn3)ccn2)c1
in the range around 550 nM | N#Cc1[nH]nnc1-c1ccnc(-c2cn(CC3CCCc4ccccc43)cn2)c1 (stereo not drawn)
in the range around 550 nM | COc1ccccc1CCn1cnc(-c2cc(-c3c[nH]nn3)ccn2)c1
in the range around 5500 nM | Cn1cnc(-c2cc(-c3c[nH]nn3)ccn2)c1-c1ccc(F)cc1OCC1CC1
in the range around 550 nM | c1ccc2c(c1)CCCC2Cn1cnc(-c2cc(-c3c[nH]nn3)ccn2)c1 (stereo not drawn)
in the range around 550 nM | c1ccc2c(CCn3cnc(-c4cc(-c5c[nH]nn5)ccn4)c3)cccc2c1
in the range around 550 nM | COc1cccc(Cn2cnc(-c3cc(-c4c[nH]nn4)ccn3)c2)c1F
in the range around 550 nM | FC(F)(F)c1ccccc1CCn1cnc(-c2cc(-c3c[nH]nn3)ccn2)c1
in the range around 550 nM | CC(c1ccccc1)n1cnc(-c2cc(-c3c[nH]nn3)ccn2)c1 (stereo not drawn)
in the range around 550 nM | Fc1[nH]nnc1-c1ccnc(-c2cn(CCc3cccc4ccccc34)cn2)c1
in the range around 550 nM | CC(C)(Cn1cnc(-c2cc(-c3c[nH]nn3)ccn2)c1)c1ccccc1Cl
in the range around 550 nM | FC(F)(F)c1cccc(Cn2cnc(-c3cc(-c4c[nH]nn4)ccn3)c2)c1Cl
in the range around 550 nM | Clc1cccc(Cn2cnc(-c3cc(-c4c[nH]nn4)ccn3)c2)c1Cl
in the range around 5500 nM | Fc1c(Cn2cnc(-c3cc(-c4c[nH]nn4)ccn3)c2)cccc1OC(F)(F)F
in the range around 5500 nM | Clc1[nH]nnc1-c1ccnc(-c2cn(CCc3cccc4ccccc34)cn2)c1
in the range around 5500 nM | CC(Cc1ccccc1)n1cnc(-c2cc(-c3c[nH]nn3)ccn2)c1 (stereo not drawn)
in the range around 550 nM | FC(F)(F)Oc1ccccc1CCn1cnc(-c2cc(-c3c[nH]nn3)ccn2)c1
in the range around 5500 nM | c1ccc(-c2ccccc2CCn2cnc(-c3cc(-c4c[nH]nn4)ccn3)c2)cc1
in the range around 550 nM | c1ccc(OCC2CC2)c(CCn2cnc(-c3cc(-c4c[nH]nn4)ccn3)c2)c1
in the range around 5500 nM | c1ccc(Oc2ccccc2CCn2cnc(-c3cc(-c4c[nH]nn4)ccn3)c2)cc1
in the range around 550 nM | Cc1cccc(Cn2cnc(-c3cc(-c4c[nH]nn4)ccn3)c2)c1F
in the range around 5500 nM | c1ccc(COc2ccccc2CCn2cnc(-c3cc(-c4c[nH]nn4)ccn3)c2)cc1
in the range around 550 nM | CCOc1ccccc1CCn1cnc(-c2cc(-c3c[nH]nn3)ccn2)c1
in the range around 550 nM | Clc1ccccc1Cn1cnc(-c2cc(-c3c[nH]nn3)ccn2)c1
in the range around 5500 nM | N#Cc1[nH]nnc1-c1ccnc(-c2cn(Cc3ccccc3Cl)cn2)c1

Further lines, the compound ahead of its results:

SMILES | IC50
Cn1cnc(-c2cc(-c3nn[nH]c3F)ccn2)c1-c1ccc(F)cc1OCC1CC1 | in the range around 5500 nM
Clc1ccc(-n2cnc(-c3cc4[nH]nnc4cn3)c2)cc1 | in the range around 5500 nM
Clc1ccccc1-n1cnc(-c2cc3[nH]nnc3cn2)c1 | in the range around 5500 nM
Clc1ccc(Cn2cnc(-c3cc4[nH]nnc4cn3)c2)cc1 | in the range around 5500 nM
Clc1ccc(Cn2cnc(-c3cc4[nH]nnc4cn3)c2)cc1Cl | in the range around 5500 nM
Clc1ccccc1Cn1cnc(-c2cc3[nH]nnc3cn2)c1 | in the range around 5500 nM
Cn1cnc(-c2cc(-c3c[nH]nn3)ccn2)c1-c1ccc(F)cc1 | in the range around 550 nM
COc1cc(-c2c(-c3cc(-c4c[nH]nn4)ccn3)ncn2C)ccc1F | in the range around 550 nM
c1nc(-c2cn(CC3CC3)cn2)cc2[nH]nnc12 | in the range around 5500 nM
Clc1cccc(-n2cnc(-c3cc4[nH]nnc4cn3)c2)c1 | in the range around 5500 nM
Cn1cnc(-c2cc3[nH]nnc3cn2)c1-c1ccc(F)cc1 | in the range around 5500 nM
c1ccc(Cn2cnc(-c3cc4[nH]nnc4cn3)c2)cc1 | in the range around 550 nM
CCOc1cc(-c2c(-c3cc(-c4c[nH]nn4)ccn3)ncn2C)ccc1F | in the range around 5500 nM
Fc1[nH]nnc1-c1ccnc(-c2cn(Cc3cccc(Cl)c3Cl)cn2)c1 | in the range around 550 nM
Clc1ccccc1Cn1cnc(-c2cc(-c3cn[nH]n3)ccn2)c1Br | in the range around 550 nM
Clc1cccc(Cn2cnc(-c3cc(-c4nn[nH]c4I)ccn3)c2)c1Cl | in the range around 550 nM
Clc1cccc(Cn2cnc(-c3cc4[nH]nnc4cn3)c2)c1 | in the range around 5500 nM
Clc1cc(Cl)cc(-n2cnc(-c3cc4[nH]nnc4cn3)c2)c1 | in the range around 5500 nM
N#Cc1[nH]nnc1-c1ccnc(-c2cn(Cc3cccc(Cl)c3Cl)cn2)c1 | in the range around 5500 nM
